Laboratory results as given in paper PMC11868595, “Safety, pharmacokinetics and efficacy of HA121-28 in patients with advanced solid tumors and RET fusion-positive non-small-cell lung cancer: a multicenter, open-label, single-arm phase 1/2 trial” (Signal Transduction and Targeted Therapy, 2025).
Read-outs that look alike come from different tables or passages of the source. Marks after values point to notes of the source that are not given here.

What was measured:
LCK = LCK (Homo sapiens, UniProt P06239); test: Tyrosine kinase inhibition; type: biochemical
LCK, sequence (P06239 whole entry): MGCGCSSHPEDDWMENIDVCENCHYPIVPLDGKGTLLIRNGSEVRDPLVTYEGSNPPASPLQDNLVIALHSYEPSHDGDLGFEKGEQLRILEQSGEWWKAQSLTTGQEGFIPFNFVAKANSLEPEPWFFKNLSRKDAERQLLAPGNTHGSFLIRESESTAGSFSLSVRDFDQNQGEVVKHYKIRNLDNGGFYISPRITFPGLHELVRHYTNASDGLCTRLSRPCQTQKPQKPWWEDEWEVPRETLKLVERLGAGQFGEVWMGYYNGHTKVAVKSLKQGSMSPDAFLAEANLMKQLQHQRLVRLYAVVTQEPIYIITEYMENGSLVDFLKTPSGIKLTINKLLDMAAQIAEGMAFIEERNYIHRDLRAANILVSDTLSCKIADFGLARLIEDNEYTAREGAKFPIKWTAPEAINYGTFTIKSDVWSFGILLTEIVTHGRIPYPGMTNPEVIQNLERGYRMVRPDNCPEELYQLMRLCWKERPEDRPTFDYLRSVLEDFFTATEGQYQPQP

KYSE-150 cells = test: Tumor cell proliferation in vitro; type: cell-based, human
C-KIT = C-KIT (Homo sapiens, UniProt P10721); test: Tyrosine kinase inhibition; type: biochemical
C-KIT, sequence (P10721 26-976): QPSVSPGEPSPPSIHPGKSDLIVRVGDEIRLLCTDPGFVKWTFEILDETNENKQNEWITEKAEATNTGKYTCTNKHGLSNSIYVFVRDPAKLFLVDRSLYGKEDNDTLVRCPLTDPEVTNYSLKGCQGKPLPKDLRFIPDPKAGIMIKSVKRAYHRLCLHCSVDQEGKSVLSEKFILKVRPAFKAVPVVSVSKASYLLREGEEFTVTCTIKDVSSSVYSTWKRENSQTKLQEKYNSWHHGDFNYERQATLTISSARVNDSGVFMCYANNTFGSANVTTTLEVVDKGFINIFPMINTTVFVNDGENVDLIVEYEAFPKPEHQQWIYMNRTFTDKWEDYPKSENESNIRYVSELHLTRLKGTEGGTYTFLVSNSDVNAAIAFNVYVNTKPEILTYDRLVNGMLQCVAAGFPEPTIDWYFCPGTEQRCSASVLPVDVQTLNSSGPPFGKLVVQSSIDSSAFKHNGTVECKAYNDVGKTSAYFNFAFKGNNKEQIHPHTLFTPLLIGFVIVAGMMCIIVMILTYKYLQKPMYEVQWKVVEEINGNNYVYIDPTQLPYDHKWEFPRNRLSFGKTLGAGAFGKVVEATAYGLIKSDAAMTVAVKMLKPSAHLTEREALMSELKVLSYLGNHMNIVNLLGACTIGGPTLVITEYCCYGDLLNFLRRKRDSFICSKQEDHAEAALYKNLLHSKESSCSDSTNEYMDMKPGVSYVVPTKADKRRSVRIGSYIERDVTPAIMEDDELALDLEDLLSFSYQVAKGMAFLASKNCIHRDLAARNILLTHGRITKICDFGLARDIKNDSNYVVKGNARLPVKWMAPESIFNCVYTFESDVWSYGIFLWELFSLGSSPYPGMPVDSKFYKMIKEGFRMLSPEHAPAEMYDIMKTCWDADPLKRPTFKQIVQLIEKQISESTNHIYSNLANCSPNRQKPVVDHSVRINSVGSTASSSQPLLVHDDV

HCT116 cells = test: Tumor cell proliferation in vitro; type: cell-based
[1] = system: human melanoma A375 tumors; test: A375 tumors in nude mice; type: in vivo
SGC-7901 cells = test: Tumor cell proliferation in vitro; type: cell-based, human; settings: SGC7901
[2] = system: human esophageal cancer ECA-109 tumors; test: ECA-109 tumors in nude mice; type: in vivo
Plasma protein binding [3] = type: in vitro ADME; settings: humans
FMS = FMS (Homo sapiens, UniProt P07333); test: Tyrosine kinase inhibition; type: biochemical
FMS, sequence (P07333 20-972): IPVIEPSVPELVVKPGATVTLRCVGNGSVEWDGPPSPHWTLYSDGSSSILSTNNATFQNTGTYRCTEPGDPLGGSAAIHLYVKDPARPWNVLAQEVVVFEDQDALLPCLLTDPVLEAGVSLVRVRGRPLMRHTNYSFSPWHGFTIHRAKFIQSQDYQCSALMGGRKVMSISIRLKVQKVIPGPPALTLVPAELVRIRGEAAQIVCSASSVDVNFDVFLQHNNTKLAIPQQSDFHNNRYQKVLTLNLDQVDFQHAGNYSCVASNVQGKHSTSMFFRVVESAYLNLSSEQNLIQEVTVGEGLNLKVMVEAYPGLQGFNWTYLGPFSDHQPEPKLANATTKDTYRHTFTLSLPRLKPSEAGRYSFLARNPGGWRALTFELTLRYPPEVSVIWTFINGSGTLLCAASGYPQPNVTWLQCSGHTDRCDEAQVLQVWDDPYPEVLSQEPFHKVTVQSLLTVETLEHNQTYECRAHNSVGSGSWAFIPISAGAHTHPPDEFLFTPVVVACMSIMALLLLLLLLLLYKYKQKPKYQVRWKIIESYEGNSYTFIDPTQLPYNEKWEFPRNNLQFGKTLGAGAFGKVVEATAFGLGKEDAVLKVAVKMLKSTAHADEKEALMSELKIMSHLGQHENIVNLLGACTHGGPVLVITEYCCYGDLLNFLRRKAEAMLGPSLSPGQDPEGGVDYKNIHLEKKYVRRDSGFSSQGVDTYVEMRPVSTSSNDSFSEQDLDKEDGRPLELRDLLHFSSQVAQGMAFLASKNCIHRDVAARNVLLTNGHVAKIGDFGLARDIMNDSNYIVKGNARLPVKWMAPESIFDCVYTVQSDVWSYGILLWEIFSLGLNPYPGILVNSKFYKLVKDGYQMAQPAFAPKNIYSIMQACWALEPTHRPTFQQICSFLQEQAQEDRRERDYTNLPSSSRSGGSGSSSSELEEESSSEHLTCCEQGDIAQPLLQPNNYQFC

Plasma protein binding [4] = type: in vitro ADME; settings: rats

Q: With `COc1cc2c(Nc3ccc(Br)cc3F)ncnc2cc1OCCCCN(C)C.Cl.Cl` [HA121-28, N-(4-bromo-2-fluorophenyl)-7-(4-(dimethylamino)butoxy)-6-methoxy quinazolin-4-amine dihydrochloride] as the compound, how does the IC50 (LCK) read?
A: 14 nM

Q: And the IC50 (KYSE-150 cells; KYSE-150, metabolite comparison, read-out: IC50)?
A: 1080 nM

Q: And the IC50 (KYSE-150 cells; KYSE-150, read-out: IC50)?
A: 1080 ± 220 nM

Q: And the IC50 (KYSE-150 cells; KYSE-150, read-out: IC50, proliferation)?
A: 1080 ± 220 nM

Q: And the IC50 (C-KIT)?
A: > 10000 nM

Q: What about the IC50 (HCT116 cells) of the same compound?
A: 1420 ± 236 nM

Q: And the “RTV ±SD” value ([1]; 12.5 mg/kg)?
A: 11.2±4.7

Q: What about the T/C ([1]; 12.5 mg/kg) of the same compound?
A: 54.6%

Q: What about the “Terminal Tumor Volume” value ([1]; 12.5 mg/kg) of the same compound?
A: 1860.7±1044.5 mm^3

Q: What about the “RTV ±SD” value ([1]; 25 mg/kg) of the same compound?
A: 8.7±5.9

Q: What about the T/C ([1]; 25 mg/kg) of the same compound?
A: 42.6%

Q: And the “Terminal Tumor Volume” value ([1]; 25 mg/kg)?
A: 1329.3±1001.3* mm^3

Q: What about the “RTV ±SD” value ([1]; 50 mg/kg) of the same compound?
A: 5.7±3.1

Q: And the T/C ([1]; 50 mg/kg)?
A: 27.7%

Q: What about the “Terminal Tumor Volume” value ([1]; 50 mg/kg) of the same compound?
A: 879.7±405.8** mm^3

Q: And the IC50 (SGC-7901 cells)?
A: 4360 ± 338 nM

Q: What about the “RTV ±SD” value ([2]; 12.5 mg/kg) of the same compound?
A: 7.0±2.8

Q: What about the T/C ([2]; 12.5 mg/kg) of the same compound?
A: 68.6%

Q: And the “Terminal Tumor Volume” value ([2]; 12.5 mg/kg)?
A: 1,684.6±1,034.3 mm^3

Q: What about the “RTV ±SD” value ([2]; 25 mg/kg) of the same compound?
A: 3.1±1.6

Q: What about the T/C ([2]; 25 mg/kg) of the same compound?
A: 29.8%

Q: And the “Terminal Tumor Volume” value ([2]; 25 mg/kg)?
A: 693.5±538.6*^▲ mm^3

Q: What about the “RTV ±SD” value ([2]; 50 mg/kg) of the same compound?
A: 2.2±0.4

Q: What about the T/C ([2]; 50 mg/kg) of the same compound?
A: 21.6%

Q: What about the “Terminal Tumor Volume” value ([2]; 50 mg/kg) of the same compound?
A: 491.8±77.4** mm^3

Q: And the “plasma protein binding rate” value (Plasma protein binding [3])?
A: 90.1±1.05%

Q: What about the IC50 (FMS) of the same compound?
A: 2910 nM

Q: And the “plasma protein binding rate” value (Plasma protein binding [4])?
A: 92.4±1.28%
